# Test results published in patent publication US9328112B2, “Tetracyclic CDK9 kinase inhibitors” (AbbVie Inc., priority 2014, dated 2016).
# Tests used:
# CDK9/Cyclin T1 = CDK9/Cyclin T1 (Homo sapiens (Human), UniProt P50750); experiment: CDK9 enzyme assay (LANCE ULight TR-FRET kinase assay); assay type: biochemical; details: 1000 μM ATP, 100 nM ULight MBP, kinase reaction 1 hour
# Procedure, shortened: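 Human CDK9/Cyclin T1 phosphorylating 100 nM ULight-MBP with 1000 μM ATP in HEPES/MgCl2 buffer, 1 h reaction. Stopped with 20 mM EDTA plus 0.5 nM Eu anti-phospho-MBP antibody, incubated 1 h, read by TR-FRET (ex 320 nm, em 615/665 nm).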
# H929 cells = experiment: Cell viability assay (Cell TiterGlo); assay type: cell-based; details: Cell TiterGlo luminescence
# Experimental: The cell viability assay was performed using H929 cells. Cells were seeded in 96-well plates at 10,000 cells/well and, after overnight incubation, treated with compounds in a dose response of 3-fold dilutions from 10 μM to 0.005 μM ([…], 0.1% final DMSO concentration). After 24 hours at 37° C., cell viability was measured using Cell TiterGlo reagent (Promega) with a luminescence reader.
# [1] = Homo sapiens, NCI-H929, 24 hours at 37° C.
# CDK9/Cyclin T1, sequence (P50750 whole entry): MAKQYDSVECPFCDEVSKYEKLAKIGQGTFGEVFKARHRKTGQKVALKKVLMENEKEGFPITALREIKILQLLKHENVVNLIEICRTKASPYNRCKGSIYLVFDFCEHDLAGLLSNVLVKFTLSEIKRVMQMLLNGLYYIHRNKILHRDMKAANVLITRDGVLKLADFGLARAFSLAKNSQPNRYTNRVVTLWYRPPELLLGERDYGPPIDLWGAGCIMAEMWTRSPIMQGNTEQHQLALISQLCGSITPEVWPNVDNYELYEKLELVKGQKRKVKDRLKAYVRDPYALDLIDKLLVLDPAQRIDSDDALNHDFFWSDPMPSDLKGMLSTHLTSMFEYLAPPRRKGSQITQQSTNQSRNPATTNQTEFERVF
# CDK9/Cyclin T1, sequence (O60563 whole entry partner): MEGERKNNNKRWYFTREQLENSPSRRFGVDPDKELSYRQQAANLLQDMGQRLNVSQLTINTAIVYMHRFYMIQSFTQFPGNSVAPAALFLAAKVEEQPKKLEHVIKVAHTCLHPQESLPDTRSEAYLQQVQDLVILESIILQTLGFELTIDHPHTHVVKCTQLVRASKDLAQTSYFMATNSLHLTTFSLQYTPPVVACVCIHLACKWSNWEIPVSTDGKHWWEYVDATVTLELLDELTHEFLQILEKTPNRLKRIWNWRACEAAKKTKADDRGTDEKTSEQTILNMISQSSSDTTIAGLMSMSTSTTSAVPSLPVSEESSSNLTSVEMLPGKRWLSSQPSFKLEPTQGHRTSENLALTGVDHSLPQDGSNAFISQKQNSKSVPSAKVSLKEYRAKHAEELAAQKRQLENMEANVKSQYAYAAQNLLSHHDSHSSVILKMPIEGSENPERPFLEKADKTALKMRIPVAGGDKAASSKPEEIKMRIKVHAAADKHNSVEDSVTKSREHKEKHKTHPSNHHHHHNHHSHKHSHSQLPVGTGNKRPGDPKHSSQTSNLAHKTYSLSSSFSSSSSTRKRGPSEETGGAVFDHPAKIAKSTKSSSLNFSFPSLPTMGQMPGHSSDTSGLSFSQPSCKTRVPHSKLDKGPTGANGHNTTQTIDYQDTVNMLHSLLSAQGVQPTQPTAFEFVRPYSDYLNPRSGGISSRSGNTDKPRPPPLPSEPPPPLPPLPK
SMILES,IC50 (CDK9/Cyclin T1) [µM],IC50 (H929 cells; [1]) [µM],IC50 (H929 cells; 24 hours at 37° C.) [µM]
"CN(CC(O)CO)C(=O)CN1CC=C(c2[nH]c3nccc4c3c2CN(C)c2ccc(F)cc2-4)C(C)(C)C1 (stereo not shown) [Example 119, N-(2,3-dihydroxypropyl)-2-[4-(10-fluoro-7-methyl-6,7-dihydro-4H-3,4,7-triazadibenzo[cd,f]azulen-5-yl)-3,3-dimethyl-3,6-dihydropyridin-1(2H)-yl]-N-methylacetamide]",1.3,2.4,
"CN1Cc2c(C3=CCCN(CC(=O)N4CCC[C@H]4CO)C3)[nH]c3nccc(c23)-c2cc(F)ccc21 [Example 120, 2-[5-(10-fluoro-7-methyl-6,7-dihydro-4H-3,4,7-triazadibenzo[cd,f]azulen-5-yl)-3,6-dihydropyridin-1(2H)-yl]-1-[(2S)-2-(hydroxymethyl)pyrrolidin-1-yl]ethanone]",0.48,2.1,
"CN1Cc2c(C3=CCCN(CC(=O)N4CC(O)C4)C3)[nH]c3nccc(c23)-c2cc(F)ccc21 [Example 121, 2-[5-(10-fluoro-7-methyl-6,7-dihydro-4H-3,4,7-triazadibenzo[cd,f]azulen-5-yl)-3,6-dihydropyridin-1(2H)-yl]-1-(3-hydroxyazetidin-1-yl)ethanone]",0.16,1.1,
"CN1Cc2c(C3=CCCN(CC(=O)N(C)C4CC(O)C4)C3)[nH]c3nccc(c23)-c2cc(F)ccc21 (stereo not shown) [Example 122, 2-[5-(10-fluoro-7-methyl-6,7-dihydro-4H-3,4,7-triazadibenzo[cd,f]azulen-5-yl)-3,6-dihydropyridin-1(2H)-yl]-N-(3-hydroxycyclobutyl)-N-methylacetamide]",0.42,1.4,
"CN(CC(O)CO)C(=O)CN1CCC=C(c2[nH]c3nccc4c3c2CN(C)c2ccc(F)cc2-4)C1 (stereo not shown) [Example 123, N-(2,3-dihydroxypropyl)-2-[5-(10-fluoro-7-methyl-6,7-dihydro-4H-3,4,7-triazadibenzo[cd,f]azulen-5-yl)-3,6-dihydropyridin-1(2H)-yl]-N-methylacetamide]",0.54,3.1,
"CN1Cc2c(C3=CCN([C@H]4CC[C@@H](CC(=O)O)CC4)CC3)[nH]c3nccc(c23)-c2cc(F)ccc21 [Example 124, {cis-4-[4-(10-fluoro-7-methyl-6,7-dihydro-4H-3,4,7-triazadibenzo[cd,f]azulen-5-yl)-3,6-dihydropyridin-1(2H)-yl]cyclohexyl}acetic acid]",0.048,0.088,
"CN1Cc2c(C3=C[C@@H]4COC(=O)N4CC3)[nH]c3nccc(c23)-c2cc(F)c(F)cc21 [Example 125, (8aR)-7-(9,10-difluoro-7-methyl-6,7-dihydro-4H-3,4,7-triazadibenzo[cd,f]azulen-5-yl)-1,5,6,8a-tetrahydro[1,3]oxazolo[3,4-a]pyridin-3-one]",0.054,0.3,
"CN1Cc2c(C3=C[C@H](CO)NCC3)[nH]c3nccc(c23)-c2cc(F)c(F)cc21 [Example 126, [(2R)-4-(9,10-difluoro-7-methyl-6,7-dihydro-4H-3,4,7-triazadibenzo[cd,f]azulen-5-yl)-1,2,5,6-tetrahydropyridin-2-yl]methanol]",0.058,0.039,
"CN1CCc2c(C3=CCNCC3)[nH]c3nccc(c23)-c2cc(F)ccc21 [Example 127, 8-fluoro-5-methyl-2-(1,2,3,6-tetrahydropyridin-4-yl)-1,3,4,5-tetrahydro-1,5,12-triazabenzo[4,5]cycloocta[1,2,3-cd]indene]",0.026,,0.1
"CN1CCc2c(C3=CCN(S(C)(=O)=O)CC3)[nH]c3nccc(c23)-c2cc(F)ccc21 [Example 128, 8-fluoro-5-methyl-2-[1-(methylsulfonyl)-1,2,3,6-tetrahydropyridin-4-yl]-1,3,4,5-tetrahydro-1,5,12-triazabenzo[4,5]cycloocta[1,2,3-cd]indene]",0.078,,0.15
"CN(C)C(=O)CN1CC=C(c2[nH]c3nccc4c3c2CCN(C)c2ccc(F)cc2-4)CC1 [Example 129, 2-[4-(8-fluoro-5-methyl-1,3,4,5-tetrahydro-1,5,12-triazabenzo[4,5]cycloocta[1,2,3-cd]inden-2-yl)-3,6-dihydropyridin-1(2H)-yl]-N,N-dimethylacetamide]",0.067,,0.13
"CN1Cc2c(C3=CCN([C@H]4CC[C@H](CC(=O)O)CC4)CC3)[nH]c3nccc(c23)-c2cc(F)ccc21 [Example 130, {trans-4-[4-(10-fluoro-7-methyl-6,7-dihydro-4H-3,4,7-triazadibenzo[cd,f]azulen-5-yl)-3,6-dihydropyridin-1(2H)-yl]cyclohexyl}acetic acid]",0.064,0.07,
"CN1Cc2c(C3=CCN(S(C)(=O)=O)CC3)[nH]c3nccc(c23)-c2cc(F)c(F)cc21 [Example 131, 9,10-difluoro-7-methyl-5-[1-(methylsulfonyl)-1,2,3,6-tetrahydropyridin-4-yl]-6,7-dihydro-4H-3,4,7-triazadibenzo[cd,f]azulene]",0.036,0.079,
"CN(C)C(=O)CN1CC=C(c2[nH]c3nccc4c3c2CN(C)c2cc(F)c(F)cc2-4)CC1 [Example 132, 2-[4-(9,10-difluoro-7-methyl-6,7-dihydro-4H-3,4,7-triazadibenzo[cd,f]azulen-5-yl)-3,6-dihydropyridin-1(2H)-yl]-N,N-dimethylacetamide]",0.04,0.014,
"COC(=O)C[C@H]1CC[C@@H](N2CC=C(c3[nH]c4nccc5c4c3CN(C)c3cc(F)c(F)cc3-5)CC2)CC1 [Example 134, methyl{cis-4-[4-(9,10-difluoro-7-methyl-6,7-dihydro-4H-3,4,7-triazadibenzo[cd,f]azulen-5-yl)-3,6-dihydropyridin-1(2H)-yl]cyclohexyl}acetate]",0.047,0.31,
"CN1Cc2c(C3=CCNCC3)[nH]c3nccc(c23)-c2cccnc21 [Example 135, 7-methyl-5-(1,2,3,6-tetrahydropyridin-4-yl)-6,7-dihydro-4H-3,4,7,8-tetraazadibenzo[cd,f]azulene]",0.063,0.076,
"CN1Cc2c(C3=CCN([C@H]4CC[C@@H](CC(=O)O)CC4)CC3)[nH]c3nccc(c23)-c2cc(F)c(F)cc21 [Example 136, {cis-4-[4-(9,10-difluoro-7-methyl-6,7-dihydro-4H-3,4,7-triazadibenzo[cd,f]azulen-5-yl)-3,6-dihydropyridin-1(2H)-yl]cyclohexyl}acetic acid]",0.058,0.021,
"CN1Cc2c(C3=CCN(CC(=O)N4CC(O)C4)CC3)[nH]c3nccc(c23)-c2cc(F)c(F)cc21 [Example 137, 2-[4-(9,10-difluoro-7-methyl-6,7-dihydro-4H-3,4,7-triazadibenzo[cd,f]azulen-5-yl)-3,6-dihydropyridin-1(2H)-yl]-1-(3-hydroxyazetidin-1-yl)ethanone]",0.052,0.045,
"CN1Cc2c(C3=CCN(S(C)(=O)=O)CC3)[nH]c3nccc(c23)-c2cccnc21 [Example 138, 7-methyl-5-[1-(methylsulfonyl)-1,2,3,6-tetrahydropyridin-4-yl]-6,7-dihydro-4H-3,4,7,8-tetraazadibenzo[cd,f]azulene]",0.069,0.18,
"CNC(=O)N1CC=C(c2[nH]c3nccc4c3c2CN(C)c2ncccc2-4)CC1 [Example 139, N-methyl-4-(7-methyl-6,7-dihydro-4H-3,4,7,8-tetraazadibenzo[cd,f]azulen-5-yl)-3,6-dihydropyridine-1(2H)-carboxamide]",0.094,0.18,
"CN1Cc2c(C3=CCN(C4CC(CC(=O)O)C4)CC3)[nH]c3nccc(c23)-c2cc(F)ccc21 (stereo not shown) [Example 140, {3-[4-(10-fluoro-7-methyl-6,7-dihydro-4H-3,4,7-triazadibenzo[cd,f]azulen-5-yl)-3,6-dihydropyridin-1(2H)-yl]cyclobutyl}acetic acid]",0.042,0.058,
"CN1Cc2c(C3=CCN([C@H]4CC[C@H](C(=O)O)CC4)CC3)[nH]c3nccc(c23)-c2cc(F)ccc21 [Example 141, trans-4-[4-(10-fluoro-7-methyl-6,7-dihydro-4H-3,4,7-triazadibenzo[cd,f]azulen-5-yl)-3,6-dihydropyridin-1(2H)-yl]cyclohexanecarboxylic acid]",0.051,0.03,
"CC[C@H]1c2c(C3=CCNCC3)[nH]c3nccc(c23)-c2cc(F)ccc2N1C [Example 142, (6S)-6-ethyl-10-fluoro-7-methyl-5-(1,2,3,6-tetrahydropyridin-4-yl)-6,7-dihydro-4H-3,4,7-triazadibenzo[cd,f]azulene]",0.03,0.005,
"CC[C@@H]1c2c(C3=CCNCC3)[nH]c3nccc(c23)-c2cc(F)ccc2N1C [Example 143, (6R)-6-ethyl-10-fluoro-7-methyl-5-(1,2,3,6-tetrahydropyridin-4-yl)-6,7-dihydro-4H-3,4,7-triazadibenzo[cd,f]azulene]",0.417,0.582,
"CN1Cc2c(C3=CCNCC3)[nH]c3nccc(c23)-c2cc(F)c(F)cc21 [Example 144, 9,10-difluoro-7-methyl-5-(1,2,3,6-tetrahydropyridin-4-yl)-6,7-dihydro-4H-3,4,7-triazadibenzo[cd,f]azulene]",0.029,0.007,
"CN1Cc2c(C3=CCN(CC(=O)O)CC3)[nH]c3nccc(c23)-c2cc(F)c(F)cc21 [Example 145, [4-(9,10-difluoro-7-methyl-6,7-dihydro-4H-3,4,7-triazadibenzo[cd,f]azulen-5-yl)-3,6-dihydropyridin-1(2H)-yl]acetic acid]",0.042,0.18,
